# Where a name gives a salt, the structure may show the parent alone. Read-outs that look alike come from different tables or passages of the source.
# Procedure: A permeation test was carried out based on the following procedure. First, an excised skin (Yucatan miniature swine or hairless mouse) was placed in a vertical diffusion cell in which temperature was kept at 37° C., and a receptor phase was filled with 7 mL of a phosphate-buffered saline (PBS, a pH of 7.5). The whole was left to stand still for one hour. […] Then, the test was started. […] Note that after each of the collections, an equivalent amount of PBS was supplemented into the receptor phase. Each PBS collected from the receptor phase was measured for a drug concentration by an HPLC method. […] Further, the slant of a permeation curve at the time when the permeation rate reached a steady state was used to calculate a skin permeation rate (μg/hr/cm^2).
# An enhancing effect on drug permeation was evaluated for the case where a 1% isopropyl myristate solution was used as a control and for the case where 1% each of n-octyl-β-D-thioglucopyranoside and dioctyl sodium sulfosuccinate was added.
SMILES,"Percutaneous absorption enhancing action (Example/Comparative Example), cumulative permeation amount for 24 hours (hairless, mouse, 24 h, pH 7.5)","Percutaneous absorption enhancing action (Example/Comparative Example), skin permeation rate (hairless, mouse, pH 7.5)","Percutaneous absorption enhancing action (Example/Comparative Example), cumulative permeation amount for 24 hours","Percutaneous absorption enhancing action (Example/Comparative Example), skin permeation rate"
"CCOC(=O)[C@H](CCc1ccccc1)N[C@@H](C)C(=O)N1C(=O)N(C)C[C@H]1C(=O)O [Imidapril hydrochloride, imidapril hydrochloride]",12 times,40 times,,
"CCOc1nc2cccc(C(=O)O)c2n1Cc1ccc(-c2ccccc2-c2nnn[nH]2)cc1 [Candesartan, candesartan]",15 times,183 times,,
"CCOC(=O)[C@H](CCc1ccccc1)N[C@@H](C)C(=O)N(CC(=O)O)C1Cc2ccccc2C1 [Delapril hydrochloride, delapril hydrochloride]",42 times,26 times,,
"CCOC(=O)[C@H](CCc1ccccc1)N[C@H]1CCCN2CCC[C@@H](C(=O)O)N2C1=O [Cilazapril, cilazapril]",13 times,16 times,,
"CC(C)n1c(/C=C/C(O)CC(O)CC(=O)O)c(-c2ccc(F)cc2)c2ccccc21 (centres unmarked) [Fluvastatin sodium, fluvastatin sodium]",28 times,54 times,,
"NNc1nncc2ccccc12 [Hydralazine hydrochloride, hydralazine hydrochloride]",344 times,"1,411 times",,
"COc1cc(N)cn[n+]1-c1ccccc1 [Amezinium metilsulfate, amezinium metilsulfate]",7 times,24 times,,
"CC1(C)S[C@@H]2[C@H](NC(=O)[C@H](N)c3ccc(O)cc3)C(=O)N2[C@H]1C(=O)O [Amoxicillin trihydrate, amoxicillin trihydrate]",234 times,254 times,,
"CCOC(=O)[C@H](CCc1ccccc1)N[C@@H](C)C(=O)N1CCC[C@H]1C(=O)O [Enalapril maleate, enalapril maleate]",4 times,44 times,,
"N[C@@H](Cc1ccc(O)c(O)c1)C(=O)O [Levodopa, levodopa]",461 times,289 times,,
"N[C@@H](C(=O)N[C@@H]1C(=O)N2C(C(=O)O)=C(Cl)CS[C@H]12)c1ccccc1 [Cefaclor, cefaclor]",420 times,962 times,,

# The remaining lines, values ahead:
"Percutaneous absorption enhancing action (Example/Comparative Example), cumulative permeation amount for 24 hours (hairless, mouse, 24 h, pH 7.5)","Percutaneous absorption enhancing action (Example/Comparative Example), skin permeation rate (hairless, mouse, pH 7.5)","Percutaneous absorption enhancing action (Example/Comparative Example), cumulative permeation amount for 24 hours","Percutaneous absorption enhancing action (Example/Comparative Example), skin permeation rate",SMILES
4 times,8 times,,,"CNC[C@H](O)c1cccc(O)c1 [Phenylephrine hydrochloride, phenylephrine hydrochloride]"
4 times,12 times,,,"CCCCC(=O)N(Cc1ccc(-c2ccccc2-c2nnn[nH]2)cc1)[C@H](C(=O)O)C(C)C [Valsartan, valsartan]"
34 times,51 times,,,"NS(=O)(=O)c1cc(C(=O)O)cc(N2CCCC2)c1Oc1ccccc1 [Piretanide, piretanide]"
5 times,8 times,,,"CCOC(=O)[C@H](CCc1ccccc1)N[C@@H](C)C(=O)N1[C@H](C(=O)O)C[C@@H]2CCC[C@@H]21 [Ramipril, ramipril]"
3 times,12 times,,,"CCC[C@H](N[C@@H](C)C(=O)N1[C@H](C(=O)O)C[C@@H]2CCCC[C@@H]21)C(=O)OCC [Perindopril erbumine, perindopril erbumine]"
75 times,94 times,,,"CCCc1nc(C(C)(C)O)c(C(=O)OCc2oc(=O)oc2C)n1Cc1ccc(-c2ccccc2-c2nnn[nH]2)cc1 [Olmesartan medoxomil, olmesartan medoxomil]"
29 times,40 times,,,"Cc1cccc(Nc2ccncc2S(=O)(=O)NC(=O)NC(C)C)c1 [Torasemide, torasemide]"
250 times,180 times,,,"CN(Cc1cnc2nc(N)nc(N)c2n1)c1ccc(C(=O)N[C@@H](CCC(=O)O)C(=O)O)cc1 [Methotrexate, methotrexate]"
47 times,92 times,,,"CC(=O)N[C@H]1[C@H]([C@H](O)[C@H](O)CO)OC(C(=O)O)=C[C@@H]1N=C(N)N [Zanamivir hydrate, zanamivir hydrate]"
,,46 times,138 times,"CC(C)c1nc(N(C)S(C)(=O)=O)nc(-c2ccc(F)cc2)c1/C=C/[C@@H](O)C[C@@H](O)CC(=O)[O-].CC(C)c1nc(N(C)S(C)(=O)=O)nc(-c2ccc(F)cc2)c1/C=C/[C@@H](O)C[C@@H](O)CC(=O)[O-].[Ca+2] [Rosuvastatin calcium, rosuvastatin calcium]"
27 times,46 times,,,"CCOC(=O)[C@H](CCc1ccccc1)N[C@H]1CS[C@H](c2cccs2)CN(CC(=O)O)C1=O [Temocapril hydrochloride, temocapril hydrochloride]"
6 times,21 times,,,"C[C@]1(Cn2ccnn2)[C@H](C(=O)O)N2C(=O)C[C@H]2S1(=O)=O [Tazobactam, tazobactam]"
20 times,18 times,,,"COc1ccccc1N1CCN(CCCNc2cc(=O)n(C)c(=O)n2C)CC1 [Urapidil, urapidil]"
27 times,33 times,,,"CCOc1cc(CC(=O)N[C@@H](CC(C)C)c2ccccc2N2CCCCC2)ccc1C(=O)O [Repaglinide, repaglinide]"

# From patent publication US8771724B2, “Percutaneous absorption enhancer and transdermal preparation using the same” (TOA EIYO Ltd., priority 2008, dated 2014)
